From US11008357B2, “Method for preparing canagliflozin amorphous form” (Zhejiang Huahai Pharmaceutical Co., Ltd., priority 2017, dated 2021)
Like-named read-outs stand apart in the source and are kept apart here.

Assays:
[1] = Stability test of canagliflozin amorphous forms (moisture absorption, crystal transition); assay type: physicochemical; conditions: Temperature 25 ± 5° C., Humidity 50-60%, 3 months
Description: In order to illustrate that the canagliflozin amorphous form of the present invention is different from the amorphous form prepared by the general amorphous preparation method, the inventors select and compare the amorphous forms obtained by the above-mentioned practical methods, including rapid evaporation of solvent for curing, mixed solvent method and other related methods.

[2] = stability test conditions not documented in the literature; cited from earlier work

Crystal transition or not [1]	Obvious moisture absorption or not [1]	SMILES	Crystal transition or not [2]	Obvious moisture absorption or not [2]
No	No obvious	Cc1ccc([C@@H]2O[C@H](CO)[C@@H](O)[C@H](O)[C@H]2O)cc1Cc1ccc(-c2ccc(F)cc2)s1 [CN104119323 Example 1, reference compound]	–	–
–	–	Cc1ccc([C@@H]2O[C@H](CO)[C@@H](O)[C@H](O)[C@H]2O)cc1Cc1ccc(-c2ccc(F)cc2)s1 [CN103889429 Example 2]	No	No obvious
